Laboratory results published in PMC10693528, “A high-throughput metabolomics in vitro platform for the characterization of hepatotoxicity” (Cell Biology and Toxicology, 2023).

System: HepG2 cells
Test: LC-MS/MS targeted intracellular metabolomics
Assay type: cell-based, human
Conditions: Suppl Fig 11, C3, 48 h
Procedure, shortened: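 Metabolites extracted in-plate from HepG2 cells with 80% isopropanol and analysed by RP and HILIC LC-MS/MS in positive and negative mode. Data normalised to lyophilised untreated HepG2 reference samples and to each sample's median across 221 metabolites. Treated versus control compared by Welch t test on log-transformed data.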

Compound: CC(=O)N1CCN(c2ccc(OCC3COC(Cn4ccnc4)(c4ccc(Cl)cc4Cl)O3)cc2)CC1 (centres unmarked) [Ketoconazole]
- 2'-Deoxycytidine level vs controls: 0.76
- 5-Hydroxytryptophan level vs controls: 0.87
- Carnitine level vs controls: 0.77
- Ceramide (d16:1.C24:0) level vs controls: 0.48
- Ceramide (d17:1.C24:0) level vs controls: 0.40
- Ceramide (d18:1.C16:0) level vs controls: 0.74
- Ceramide (d18:1.C18:0) level vs controls: 0.58
- Ceramide (d18:1.C20:0) level vs controls: 0.38
- Ceramide (d18:1.C21:0) level vs controls: 0.64
- Ceramide (d18:1.C22:0) level vs controls: 0.54
- Ceramide (d18:1.C23:0) level vs controls: 0.50
- Ceramide (d18:1.C24:0) level vs controls: 0.60
- Ceramide (d18:1.C24:1) level vs controls: 0.70
- Ceramide (d18:2.C16:0) level vs controls: 0.55
- Ceramide (d18:2.C18:0) level vs controls: 0.38
- Ceramide (d18:2.C22:0) level vs controls: 0.39
- Ceramide (d18:2.C23:0) level vs controls: 0.49
- Ceramide (d18:2.C24:0) level vs controls: 0.48
- Ceramide (d18:2.C24:1) level vs controls: 0.66
- Ceramide (d18:2.C24:2) level vs controls: 0.36
- Cholesterylester (C20:2) level vs controls: 0.58
- Choline plasmalogen (C36:4) level vs controls: 1.23
- Choline plasmalogen (C36:5) level vs controls: 1.44
- Coenzyme Q10 level vs controls: 0.65
- Glutamate level vs controls: 0.92
- Glutathione (GSH) level vs controls: 0.90
- Hexadecanoylcarnitine level vs controls: 1.97
- Hexadecenoylcarnitine level vs controls: 3.61
- Isopentenyl pyrophosphate (IPP) level vs controls: 0.50
- Lysophosphatidylcholine (C14:0) level vs controls: 1.21
- Lysophosphatidylcholine (C16:0) level vs controls: 1.96
- Lysophosphatidylcholine (C16:1) level vs controls: 2.67
- Lysophosphatidylcholine (C20:0) level vs controls: 1.34
- Lysophosphatidylcholine (C20:1) level vs controls: 1.07
- Lysophosphatidylcholine (C20:4) level vs controls: 6.43
- Lysophosphatidylcholine (C22:0) level vs controls: 1.53
- Lysophosphatidylcholine (C24:1) level vs controls: 2.21
- Lysophosphatidylethanolamine (C16:0) level vs controls: 0.82
- Lysophosphatidylethanolamine (C18:0) level vs controls: 1.22
- Lysophosphatidylethanolamine (C20:4) level vs controls: 4.71
- Lysophosphatidylethanolamine (C22:6) level vs controls: 4.79
- N-Acetylaspartate level vs controls: 0.69
- N-Acetylserine level vs controls: 0.84
- Octadecenoylcarnitine level vs controls: 3.35
- Pantothenic acid level vs controls: 0.85
- Phosphatidylcholine (C32:0) level vs controls: 0.81
- Phosphatidylcholine (C34:0) level vs controls: 0.81
- Phosphatidylcholine (C34:1) level vs controls: 0.79
- Phosphatidylcholine (C34:2) level vs controls: 0.89
- Phosphatidylcholine (C34:3) level vs controls: 1.19
- Phosphatidylcholine (C36:1) level vs controls: 0.77
- Phosphatidylcholine (C36:2) level vs controls: 0.64
- Phosphatidylcholine (C36:3) level vs controls: 0.89
- Phosphatidylcholine (C36:4) level vs controls: 0.67
- Phosphatidylcholine (C36:5) level vs controls: 0.66
- Phosphatidylcholine (C38:4) level vs controls: 1.06
- Phosphatidylcholine (C38:6) level vs controls: 0.74
- Phosphatidylcholine (C40:6) level vs controls: 1.10
- Phosphatidylcholine (C40:7) level vs controls: 1.16
- Phosphatidylcholine (C40:8) level vs controls: 1.11
- Phosphatidylethanolamine (C32:0) level vs controls: 0.86
- Phosphatidylethanolamine (C34:0) level vs controls: 0.73
- Phosphatidylethanolamine (C34:1) level vs controls: 0.82
- Phosphatidylethanolamine (C36:0) level vs controls: 0.70
- Phosphatidylethanolamine (C36:1) level vs controls: 0.78
- Phosphatidylethanolamine (C36:2) level vs controls: 0.93
- Phosphatidylethanolamine (C36:4) level vs controls: 0.96
- Phosphatidylethanolamine (C38:3) level vs controls: 0.90
- Phosphatidylethanolamine (C38:4) level vs controls: 1.10
- Phosphatidylethanolamine (C38:5) level vs controls: 1.10
- Phosphatidylethanolamine (C38:6) level vs controls: 0.86
- Phosphatidylethanolamine (C40:7) level vs controls: 1.09
- Phosphocholine level vs controls: 0.82
- Pipecolic acid level vs controls: 0.86
- Proline level vs controls: 0.79
- Pyridoxal level vs controls: 0.82
- S-Adenosylhomocysteine level vs controls: 0.69
- Sphingomyelin (d32:1) level vs controls: 1.49
- Sphingomyelin (d32:2) level vs controls: 1.28
- Sphingomyelin (d33:1) level vs controls: 1.18
- Sphingomyelin (d34:0) level vs controls: 2.87
- Sphingomyelin (d34:2) level vs controls: 1.31
- Sphingomyelin (d35:1) level vs controls: 1.86
- Sphingomyelin (d35:2) level vs controls: 1.71
- Sphingomyelin (d36:1) level vs controls: 1.62
- Sphingomyelin (d36:2) level vs controls: 1.45
- Sphingomyelin (d36:3) level vs controls: 1.48
- Sphingomyelin (d37:1) level vs controls: 1.49
- Sphingomyelin (d38:1) level vs controls: 1.42
- Sphingomyelin (d38:2) level vs controls: 1.21
- Sphingomyelin (d39:1) level vs controls: 1.79
- Sphingomyelin (d40:1) level vs controls: 1.85
- Sphingomyelin (d40:2) level vs controls: 1.67
- Sphingomyelin (d41:1) level vs controls: 1.75
- Sphingomyelin (d41:2) level vs controls: 1.88
- Sphingomyelin (d42:1) level vs controls: 1.54
- Sphingomyelin (d42:2) level vs controls: 1.83
- Taurine level vs controls: 1.32
- Tetradecanoylcarnitine level vs controls: 2.20
- Threonine level vs controls: 0.85
- Triacylglycerol (C30:0.C18:1) level vs controls: 0.61
- Triacylglycerol (C32:0.C16:0) level vs controls: 0.23
- Triacylglycerol (C32:0.C16:1) level vs controls: 0.51
- Triacylglycerol (C34:0.C16:0) level vs controls: 0.16
- Triacylglycerol (C34:0.C17:0) level vs controls: 0.34
- Triacylglycerol (C34:0.C18:0) level vs controls: 0.14
- Triacylglycerol (C34:0.C18:1) level vs controls: 0.31
- Triacylglycerol (C34:1.C16:0) level vs controls: 0.44
- Triacylglycerol (C34:1.C18:1) level vs controls: 0.83
- Triacylglycerol (C34:1.C18:3) level vs controls: 1.33
- Triacylglycerol (C34:2.C18:0) level vs controls: 0.68
- Triacylglycerol (C34:2.C18:1) level vs controls: 1.31
- Triacylglycerol (C36:1.C18:0) level vs controls: 0.27
- Triacylglycerol (C36:1.C18:1) level vs controls: 0.61
- Triacylglycerol (C36:2.C18:1) level vs controls: 1.14
- Triacylglycerol (C36:3.C18:1) level vs controls: 1.57
- Triacylglycerol (C36:3.C18:2) level vs controls: 2.03
- Triacylglycerol (C36:4.C16:0) level vs controls: 1.15
- Triacylglycerol (C36:4.C18:0) level vs controls: 1.19
- myo-Inositol-2-phosphate level vs controls: 0.50
- Sphingomyelin (d34:1) level vs controls (first of two lines with this name): 1.40
- Sphingomyelin (d34:1) level vs controls (second of two lines with this name): 1.16
